The nature of series [1]: Dissolution test of poorly-soluble substances using 2nd fluid for disintegration test (pH 6.8) of the Japanese Pharmacopoeia. The class given is physicochemical.
Series [2] in a line: Dissolution test of poorly-soluble substances using distilled water. The class given is physicochemical.
How the values of series [3] were obtained:
The rotation number of the stirrer was 120 rpm, and all of the tests were conducted in a thermostat at 37±0.5° C. Two types of test solutions, namely, distilled water and 2nd fluid for disintegration test (pH 6.8) of the Japanese Pharmacopoeia were used. As such 2nd fluid for disintegration test of the Japanese Pharmacopoeia, a solution prepared by diluting the 10-fold concentration solution of Kanto Kagaku Co., Ltd. with distilled water was used.
A comparative test was carried out in the same manner as that described above with the exception that a poorly-soluble substance or the like was used in an amount equal to that of a substance with improved aqueous solubility, instead of the substance with improved aqueous solubility.
1 mL of the solution was sampled in an Eppendorf centrifuge tube, 1, 3, 10, 30, 60, 180 and 360 minutes after initiation of the test. The thus sampled solution was centrifuged at 12,000 rpm for 5 minutes. […] In the case of the comparative test, the poorly-soluble substance or the like, which had not been dissolved in the solution, was removed. An aliquot of this supernatant was immediately frozen. The frozen sample was freeze-dried, and it was then used as a sample in the measurement of the amount of the substance with improved aqueous solubility, which had been dissolved in the test solution. The dissolved poorly-soluble substance was measured mainly using a dual wavelength absorption photometer.
Moreover, a comparative test was carried out using silica fume instead of the calcium compound microparticles. Specifically, a coating treatment was carried out according to the same method as that described in the above section “6-1.

`O=C(Nc1ccc(Cl)cc1)Nc1ccc(Cl)c(Cl)c1` [10-1, Trichlorocarbanilide]: the Dissolved amount in series [1] (2nd fluid for disintegration test, elution time 1 min) stood at 0.0 µg/mL; in series [1] (2nd fluid for disintegration test, elution time 3 min), 0.3 µg/mL; in series [1] (2nd fluid for disintegration test, elution time 10 min) it was 0.6 µg/mL; in series [1] (2nd fluid for disintegration test, elution time 30 min), 0.8 µg/mL; in series [1] (2nd fluid for disintegration test, elution time 60 min), 1.1 µg/mL; in series [1] (2nd fluid for disintegration test, elution time 180 min) it was 1.3 µg/mL. In addition, the Dissolved amount was determined as 1.5 µg/mL in series [1] (2nd fluid for disintegration test, elution time 360 min); 1.5 µg/mL in series [1] (Second disintegration test medium, trichlorocarbanilide, elution time not printed in Table 13); 0.0 µg/mL in series [2] (Dissolution test using water, elution time 1 min); 0.1 µg/mL in series [2] (Dissolution test using water, elution time 3 min); 0.4 µg/mL in series [2] (Dissolution test using water, elution time 10 min); 0.4 µg/mL in series [2] (Dissolution test using water, elution time 30 min). Also, the Dissolved amount in series [2] (Dissolution test using water, elution time 60 min) came out at 0.4 µg/mL; in series [2] (Dissolution test using water, elution time 180 min), 0.5 µg/mL; in series [2] (Dissolution test using water, elution time 360 min), 0.6 µg/mL; in series [2] (Distilled water, trichlorocarbanilide, elution time not printed in Table 13) it was 0.6 µg/mL. In addition, in series [3], the solubility-improving effect result is “a solubility-improving effect was obtained”.

The values are drawn from US9023398B2, “Method for improving the aqueous solubility of poorly-soluble substances” (Kabushiki Kaisha Sangi, priority 2009, dated 2015).
